Laboratory results: ChEMBL document CHEMBL3885881, “DrugMatrix”

Species: Rattus norvegicus
Experiment: DrugMatrix - Regimen: Daily Repeat
Format: toxicity, organism-based, Sprague-Dawley
Design: regimen Daily Repeat, gender Male, age 6-8 weeks
Conditions: in vivo, po, route oral GAVAGE, vehicle 100 % WATER; for ABSOLUTE BASOPHIL / ABSOLUTE EOSINOPHIL / ABSOLUTE LYMPHOCYTE / ABSOLUTE MONOCYTE / ABSOLUTE SEGMENTED NEUTROPHIL / BASOPHIL / EOSINOPHIL / ERYTHROCYTE COUNT / HEMATOCRIT / HEMOGLOBIN / LEUKOCYTE COUNT / LYMPHOCYTE / MEAN CORPUSCULAR HEMOGLOBIN / MEAN CORPUSCULAR HEMOGLOBIN CONCENTRATION / MEAN CORPUSCULAR VOLUME / MONOCYTE / NEUTROPHIL / NUCLEATED RED BLOOD CELLS / PLATELET COUNT: tissue Blood; for ALANINE AMINOTRANSFERASE / ALBUMIN / ALKALINE PHOSPHATASE / ASPARTATE AMINOTRANSFERASE / BLOOD UREA NITROGEN / CARBON DIOXIDE / CHLORIDE / CHOLESTEROL / CREATINE PHOSPHOKINASE / CREATININE / GLUCOSE / LACTATE DEHYDROGENASE / LIPASE / PHOSPHORUS / SODIUM / TOTAL BILIRUBIN / TOTAL PROTEIN / URIC ACID: tissue Plasma
[1] = 100 mg/kg, 120 h, dose level Low, time 5 day
[2] = 500 mg/kg, 72 h, dose level High, time 3 day
[3] = 500 mg/kg, 120 h, dose level High, time 5 day

CCN(CC)C(=S)SSC(=S)N(CC)CC
ABSOLUTE BASOPHIL [1]: 0 CELLS/uL | ABSOLUTE EOSINOPHIL [1]: 0 CELLS/uL | ABSOLUTE LYMPHOCYTE [1]: 13796 CELLS/uL | ABSOLUTE MONOCYTE [1]: 155.67 CELLS/uL | ABSOLUTE SEGMENTED NEUTROPHIL [1]: 1615 CELLS/uL | BASOPHIL [1]: 0% | EOSINOPHIL [1]: 0% | ERYTHROCYTE COUNT [1]: 5.47 x10E6/uL | HEMATOCRIT [1]: 33.87% | HEMOGLOBIN [1]: 13.53 G/DL | LEUKOCYTE COUNT [1]: 15.57 x10E3/uL | LYMPHOCYTE [1]: 89% | MEAN CORPUSCULAR HEMOGLOBIN [1]: 24.8 pg | MEAN CORPUSCULAR HEMOGLOBIN CONCENTRATION [1]: 39.97 G/DL | MEAN CORPUSCULAR VOLUME [1]: 62 fL | MONOCYTE [1]: 1% | NEUTROPHIL [1]: 10% | NUCLEATED RED BLOOD CELLS [1]: 0 /100WBC | PLATELET COUNT [1]: 1356.33 x10E3/uL | ALANINE AMINOTRANSFERASE [1]: 42.67 u/L | ALBUMIN [1]: 4.1 G/DL | ALKALINE PHOSPHATASE [1]: 265.33 u/L | ASPARTATE AMINOTRANSFERASE [1]: 70 u/L | BLOOD UREA NITROGEN [1]: 15.33 mg/dL | CARBON DIOXIDE [1]: 31.67 mmol/L | CHLORIDE [1]: 102.67 MEQ/L | CHOLESTEROL [1]: 83.67 mg/dL | CREATINE PHOSPHOKINASE [1]: 216.33 u/L | CREATININE [1]: 0.15 mg/dL | GLUCOSE [1]: 123.67 mg/dL | LACTATE DEHYDROGENASE [1]: 231 u/L | LIPASE [1]: 11.33 u/L | PHOSPHORUS [1]: 11.73 mg/dL | SODIUM [1]: 145.07 MEQ/L | TOTAL BILIRUBIN [1]: 0.2 mg/dL | TOTAL PROTEIN [1]: 6 G/DL | URIC ACID [1]: 1.37 mg/dL | ABSOLUTE BASOPHIL [2]: 0 CELLS/uL | ABSOLUTE EOSINOPHIL [2]: 32 CELLS/uL | ABSOLUTE LYMPHOCYTE [2]: 16158.67 CELLS/uL | ABSOLUTE MONOCYTE [2]: 362.67 CELLS/uL | ABSOLUTE SEGMENTED NEUTROPHIL [2]: 2246.67 CELLS/uL | BASOPHIL [2]: 0% | EOSINOPHIL [2]: 0.33% | ERYTHROCYTE COUNT [2]: 5.54 x10E6/uL | HEMATOCRIT [2]: 34.57% | HEMOGLOBIN [2]: 13.7 G/DL | LEUKOCYTE COUNT [2]: 18.8 x10E3/uL | LYMPHOCYTE [2]: 85% | MEAN CORPUSCULAR HEMOGLOBIN [2]: 24.73 pg | MEAN CORPUSCULAR HEMOGLOBIN CONCENTRATION [2]: 39.63 G/DL | MEAN CORPUSCULAR VOLUME [2]: 62.43 fL | MONOCYTE [2]: 2.33% | NEUTROPHIL [2]: 12.33% | NUCLEATED RED BLOOD CELLS [2]: 0 /100WBC | PLATELET COUNT [2]: 1410.67 x10E3/uL | ALANINE AMINOTRANSFERASE [2]: 78.33 u/L | ALBUMIN [2]: 3.87 G/DL | ALKALINE PHOSPHATASE [2]: 211.67 u/L | ASPARTATE AMINOTRANSFERASE [2]: 279.33 u/L | BLOOD UREA NITROGEN [2]: 11.33 mg/dL | CARBON DIOXIDE [2]: 30.33 mmol/L | CHLORIDE [2]: 102.33 MEQ/L | CHOLESTEROL [2]: 124 mg/dL | CREATINE PHOSPHOKINASE [2]: 747.67 u/L | CREATININE [2]: 0.15 mg/dL | GLUCOSE [2]: 121.33 mg/dL | LACTATE DEHYDROGENASE [2]: 433.33 u/L | LIPASE [2]: 11.33 u/L | PHOSPHORUS [2]: 10.77 mg/dL | SODIUM [2]: 143.53 MEQ/L | TOTAL BILIRUBIN [2]: 0.13 mg/dL | TOTAL PROTEIN [2]: 5.93 G/DL | URIC ACID [2]: 1.53 mg/dL | ABSOLUTE BASOPHIL [3]: 0 CELLS/uL | ABSOLUTE EOSINOPHIL [3]: 134 CELLS/uL | ABSOLUTE LYMPHOCYTE [3]: 14987.33 CELLS/uL | ABSOLUTE MONOCYTE [3]: 0 CELLS/uL | ABSOLUTE SEGMENTED NEUTROPHIL [3]: 1378.67 CELLS/uL | BASOPHIL [3]: 0% | EOSINOPHIL [3]: 0.67% | ERYTHROCYTE COUNT [3]: 4.95 x10E6/uL | HEMATOCRIT [3]: 30.57% | HEMOGLOBIN [3]: 12.3 G/DL | LEUKOCYTE COUNT [3]: 16.5 x10E3/uL | LYMPHOCYTE [3]: 90.33% | MEAN CORPUSCULAR HEMOGLOBIN [3]: 24.83 pg | MEAN CORPUSCULAR HEMOGLOBIN CONCENTRATION [3]: 40.2 G/DL | MEAN CORPUSCULAR VOLUME [3]: 61.67 fL | MONOCYTE [3]: 0% | NEUTROPHIL [3]: 9% | NUCLEATED RED BLOOD CELLS [3]: 0 /100WBC | PLATELET COUNT [3]: 1031.33 x10E3/uL | ALANINE AMINOTRANSFERASE [3]: 55 u/L | ALBUMIN [3]: 3.83 G/DL | ALKALINE PHOSPHATASE [3]: 254 u/L | ASPARTATE AMINOTRANSFERASE [3]: 134.33 u/L | BLOOD UREA NITROGEN [3]: 16.33 mg/dL | CARBON DIOXIDE [3]: 27 mmol/L | CHLORIDE [3]: 102.67 MEQ/L | CHOLESTEROL [3]: 109 mg/dL | CREATINE PHOSPHOKINASE [3]: 292.67 u/L | CREATININE [3]: 0.16 mg/dL | GLUCOSE [3]: 155.33 mg/dL | LACTATE DEHYDROGENASE [3]: 217.33 u/L | LIPASE [3]: 11.33 u/L | PHOSPHORUS [3]: 12 mg/dL | SODIUM [3]: 141.9 MEQ/L | TOTAL BILIRUBIN [3]: 0.17 mg/dL | TOTAL PROTEIN [3]: 6 G/DL | URIC ACID [3]: 1.6 mg/dL
